Common to all, as to type: protein-complex assay
One test concerns the target Integrin alpha-V/beta-3 (Homo sapiens, UniProt P05106+P06756). The test can be described thus: In vitro inhibitory activity against alpha v beta 3 vitronectin protein interaction was measured by ELISA.
Test [1] has as its target Integrin alpha-IIb/beta-3 (Homo sapiens, UniProt P05106+P08514). The test can be described thus: In vitro inhibitory activity against alpha IIb beta IIIa fibrinogen protein interaction was measured by ELISA. A general note: ELISA stands for enzyme-linked immunosorbent assay.
Another test concerns the target Integrin alpha-5/beta-1 (Homo sapiens, UniProt P05556+P08648). The test can be described thus: In vitro inhibitory activity against alpha 5 beta 1 fibronectin protein interaction was measured by ELISA.
A further test deals with Integrin alpha-V/beta-5 (Homo sapiens, UniProt P06756+P18084). Kind of test: In vitro inhibitory activity against alpha v beta 5 vitronectin protein interaction was measured by ELISA.

pIC50: −log10 of the molar value. Bounds are passed on as bounds.

Sequence of Integrin alpha-V/beta-3 (P05106 27-788 limits assumed): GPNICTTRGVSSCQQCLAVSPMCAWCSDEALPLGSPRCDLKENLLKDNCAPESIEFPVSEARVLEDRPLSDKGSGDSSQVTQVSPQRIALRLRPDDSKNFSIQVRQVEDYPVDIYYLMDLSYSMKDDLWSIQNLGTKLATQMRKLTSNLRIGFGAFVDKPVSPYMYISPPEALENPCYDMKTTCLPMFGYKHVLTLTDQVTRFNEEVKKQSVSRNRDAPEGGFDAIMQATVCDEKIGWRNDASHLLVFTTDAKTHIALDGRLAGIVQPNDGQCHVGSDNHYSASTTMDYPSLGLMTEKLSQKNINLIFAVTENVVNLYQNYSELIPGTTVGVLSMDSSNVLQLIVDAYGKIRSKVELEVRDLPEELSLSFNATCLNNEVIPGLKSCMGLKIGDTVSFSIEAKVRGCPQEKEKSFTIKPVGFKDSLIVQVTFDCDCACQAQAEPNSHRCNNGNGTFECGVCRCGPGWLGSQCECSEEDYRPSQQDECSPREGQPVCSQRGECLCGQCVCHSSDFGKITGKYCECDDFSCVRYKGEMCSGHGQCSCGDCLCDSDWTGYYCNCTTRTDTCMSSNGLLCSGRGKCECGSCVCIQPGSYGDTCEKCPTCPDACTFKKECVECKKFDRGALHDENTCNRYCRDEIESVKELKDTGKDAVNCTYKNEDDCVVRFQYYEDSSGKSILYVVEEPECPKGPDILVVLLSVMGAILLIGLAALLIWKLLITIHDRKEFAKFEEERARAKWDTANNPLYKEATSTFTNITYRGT
Sequence of Integrin alpha-V/beta-3 (P06756 31-889 limits assumed): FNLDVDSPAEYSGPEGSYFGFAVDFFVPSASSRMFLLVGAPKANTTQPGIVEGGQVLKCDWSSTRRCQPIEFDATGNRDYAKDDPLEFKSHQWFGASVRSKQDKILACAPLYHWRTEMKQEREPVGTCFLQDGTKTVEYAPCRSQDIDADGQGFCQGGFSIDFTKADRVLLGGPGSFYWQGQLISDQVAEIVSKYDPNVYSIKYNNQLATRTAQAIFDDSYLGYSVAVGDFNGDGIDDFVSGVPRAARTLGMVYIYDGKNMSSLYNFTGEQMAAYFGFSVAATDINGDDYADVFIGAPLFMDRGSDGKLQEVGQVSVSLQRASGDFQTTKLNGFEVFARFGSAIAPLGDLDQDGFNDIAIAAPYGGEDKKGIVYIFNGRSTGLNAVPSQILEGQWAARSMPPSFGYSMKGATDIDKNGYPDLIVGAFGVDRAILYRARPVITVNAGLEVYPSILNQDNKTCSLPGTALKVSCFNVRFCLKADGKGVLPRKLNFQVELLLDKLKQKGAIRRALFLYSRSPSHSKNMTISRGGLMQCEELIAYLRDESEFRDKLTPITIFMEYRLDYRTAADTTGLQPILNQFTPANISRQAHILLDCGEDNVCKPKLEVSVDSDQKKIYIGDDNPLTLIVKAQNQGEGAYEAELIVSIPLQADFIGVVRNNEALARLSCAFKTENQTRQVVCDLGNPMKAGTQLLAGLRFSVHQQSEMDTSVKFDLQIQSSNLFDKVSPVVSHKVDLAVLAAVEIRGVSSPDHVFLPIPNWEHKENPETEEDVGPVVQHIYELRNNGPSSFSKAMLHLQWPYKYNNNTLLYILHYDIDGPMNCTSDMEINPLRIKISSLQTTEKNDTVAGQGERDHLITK
Sequence of Integrin alpha-V/beta-3 (P06756 891-1048 limits assumed): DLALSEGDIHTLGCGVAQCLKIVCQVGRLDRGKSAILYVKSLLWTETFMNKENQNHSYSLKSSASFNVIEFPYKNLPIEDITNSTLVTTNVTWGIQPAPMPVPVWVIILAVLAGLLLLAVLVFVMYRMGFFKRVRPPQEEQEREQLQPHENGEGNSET
Sequence of Integrin alpha-IIb/beta-3 (P05106 27-788 limits assumed): as the sequence (P05106 27-788 limits assumed) above
Sequence of Integrin alpha-IIb/beta-3 (P08514 32-887 limits assumed): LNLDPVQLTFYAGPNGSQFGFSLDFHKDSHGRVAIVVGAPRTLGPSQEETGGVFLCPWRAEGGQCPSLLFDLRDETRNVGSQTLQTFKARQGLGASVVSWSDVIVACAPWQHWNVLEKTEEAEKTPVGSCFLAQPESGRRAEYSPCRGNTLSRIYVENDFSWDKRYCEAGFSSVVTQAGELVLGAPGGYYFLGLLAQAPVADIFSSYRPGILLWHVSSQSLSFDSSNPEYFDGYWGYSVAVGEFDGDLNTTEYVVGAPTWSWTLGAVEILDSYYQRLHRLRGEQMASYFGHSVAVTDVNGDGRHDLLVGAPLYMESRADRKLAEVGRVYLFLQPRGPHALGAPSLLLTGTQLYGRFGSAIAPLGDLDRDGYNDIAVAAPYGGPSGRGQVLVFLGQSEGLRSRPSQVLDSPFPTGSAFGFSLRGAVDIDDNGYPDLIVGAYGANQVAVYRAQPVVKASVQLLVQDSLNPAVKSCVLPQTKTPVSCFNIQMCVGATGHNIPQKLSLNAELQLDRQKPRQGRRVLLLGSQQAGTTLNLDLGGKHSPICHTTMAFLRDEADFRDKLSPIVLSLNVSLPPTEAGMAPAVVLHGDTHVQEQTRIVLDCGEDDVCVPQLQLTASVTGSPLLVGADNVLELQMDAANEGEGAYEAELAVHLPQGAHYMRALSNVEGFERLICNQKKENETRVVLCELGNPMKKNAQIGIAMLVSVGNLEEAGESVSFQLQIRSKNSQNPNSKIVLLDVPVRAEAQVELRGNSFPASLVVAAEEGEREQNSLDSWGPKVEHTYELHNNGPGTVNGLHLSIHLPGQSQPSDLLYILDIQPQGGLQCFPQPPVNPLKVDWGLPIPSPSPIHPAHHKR
Sequence of Integrin alpha-IIb/beta-3 (P08514 891-1039 limits assumed): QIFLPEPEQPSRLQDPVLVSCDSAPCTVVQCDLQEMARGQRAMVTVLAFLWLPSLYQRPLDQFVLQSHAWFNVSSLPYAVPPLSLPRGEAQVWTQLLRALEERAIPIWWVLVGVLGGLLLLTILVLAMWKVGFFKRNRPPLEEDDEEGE
Sequence of Integrin alpha-5/beta-1 (P05556 21-798 limits assumed): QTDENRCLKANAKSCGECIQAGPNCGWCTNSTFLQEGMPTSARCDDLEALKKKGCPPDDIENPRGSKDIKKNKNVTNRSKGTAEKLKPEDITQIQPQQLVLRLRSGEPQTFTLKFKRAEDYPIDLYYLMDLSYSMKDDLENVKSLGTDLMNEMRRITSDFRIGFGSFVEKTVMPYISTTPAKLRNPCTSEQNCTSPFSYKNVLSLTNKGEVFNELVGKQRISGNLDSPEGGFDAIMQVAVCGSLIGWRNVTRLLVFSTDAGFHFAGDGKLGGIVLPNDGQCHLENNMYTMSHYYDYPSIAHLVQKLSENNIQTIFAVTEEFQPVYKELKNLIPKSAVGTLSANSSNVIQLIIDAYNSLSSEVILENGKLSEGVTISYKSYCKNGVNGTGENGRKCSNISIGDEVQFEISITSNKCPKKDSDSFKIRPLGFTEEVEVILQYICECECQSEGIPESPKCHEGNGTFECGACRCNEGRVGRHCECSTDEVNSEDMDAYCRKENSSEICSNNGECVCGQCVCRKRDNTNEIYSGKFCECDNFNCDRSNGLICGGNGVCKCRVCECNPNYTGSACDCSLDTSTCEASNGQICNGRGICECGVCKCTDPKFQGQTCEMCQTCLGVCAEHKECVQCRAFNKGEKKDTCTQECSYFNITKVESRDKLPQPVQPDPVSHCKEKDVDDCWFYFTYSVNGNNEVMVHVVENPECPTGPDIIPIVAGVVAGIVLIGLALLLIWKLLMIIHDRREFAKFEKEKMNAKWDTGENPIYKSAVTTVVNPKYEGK
Sequence of Integrin alpha-5/beta-1 (P08648 42-894 limits assumed): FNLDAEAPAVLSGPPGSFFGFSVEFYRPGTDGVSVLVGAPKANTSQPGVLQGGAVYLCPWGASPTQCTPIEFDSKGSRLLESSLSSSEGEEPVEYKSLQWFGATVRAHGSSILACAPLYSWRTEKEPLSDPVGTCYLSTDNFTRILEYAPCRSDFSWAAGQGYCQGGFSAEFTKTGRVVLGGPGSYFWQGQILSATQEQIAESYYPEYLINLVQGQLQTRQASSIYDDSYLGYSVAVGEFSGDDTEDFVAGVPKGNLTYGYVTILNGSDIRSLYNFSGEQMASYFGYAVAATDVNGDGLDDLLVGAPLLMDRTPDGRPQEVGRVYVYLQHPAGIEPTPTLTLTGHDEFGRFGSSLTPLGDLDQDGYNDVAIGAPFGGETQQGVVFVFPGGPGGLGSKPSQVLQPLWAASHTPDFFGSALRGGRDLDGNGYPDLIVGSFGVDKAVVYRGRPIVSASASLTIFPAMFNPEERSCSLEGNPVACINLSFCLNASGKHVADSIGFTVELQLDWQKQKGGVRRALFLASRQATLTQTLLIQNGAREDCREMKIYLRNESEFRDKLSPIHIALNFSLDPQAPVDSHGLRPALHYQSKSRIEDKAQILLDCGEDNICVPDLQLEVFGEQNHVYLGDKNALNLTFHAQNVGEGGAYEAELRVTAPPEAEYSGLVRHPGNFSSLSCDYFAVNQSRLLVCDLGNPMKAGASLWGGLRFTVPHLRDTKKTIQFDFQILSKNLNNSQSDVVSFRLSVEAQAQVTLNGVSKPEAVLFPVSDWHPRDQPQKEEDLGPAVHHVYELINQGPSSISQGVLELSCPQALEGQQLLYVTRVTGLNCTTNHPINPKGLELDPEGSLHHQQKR
Sequence of Integrin alpha-5/beta-1 (P08648 895-1049 limits assumed): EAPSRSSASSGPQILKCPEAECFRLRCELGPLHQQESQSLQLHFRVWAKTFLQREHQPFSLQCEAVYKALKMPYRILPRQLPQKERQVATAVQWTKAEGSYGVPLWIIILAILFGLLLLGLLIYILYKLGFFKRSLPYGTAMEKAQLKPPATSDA

In general, pIC50 refers to −log10 of the IC50, conventionally taken in molar units. Higher therefore signals a small IC50. Take `O=C(NCC(NS(=O)(=O)c1ccccc1)C(=O)O)c1cc2cc(OCCONC3=NCCN3)ccc2[nH]1` (stereo not given): the negative-log IC50 (pIC50) on Integrin alpha-V/beta-3 was 7.00; in test [1], 6.77; against Integrin alpha-5/beta-1, under 4.70; at Integrin alpha-V/beta-5, under 4.70.
Regarding `Cc1ccc(S(=O)(=O)NC(CNC(=O)c2cc3cc(OCCON=C(N)N)ccc3[nH]2)C(=O)O)cc1` (stereo not given), the negative-log IC50 (pIC50) on Integrin alpha-V/beta-3 is 8.05.
In the case of `Cc1ccc(S(=O)(=O)NC(CNC(=O)c2cc3cc(OCCO/N=C(\N)NC(=O)OC(C)(C)C)ccc3[nH]2)C(=O)O)cc1` (stereo not given), the pIC50 on Integrin alpha-V/beta-3 was 6.89.
The same measure, in the same setting: the figure for `N=C(N)NOCCOc1ccc2[nH]c(C(=O)NCC(NCc3ccccc3)C(=O)O)cc2c1` (stereo not given) is under 4.70; for `NC(N)=NOCCOc1ccc2[nH]c(C(=O)NCC(N)C(=O)O)cc2c1` (stereo not given) it is under 4.70.
Regarding `CC1(C)C2CCC1(S(=O)(=O)NC(CNC(=O)c1cc3cc(OCCONC(=N)N)ccc3[nH]1)C(=O)O)CC2` (stereo not given), the negative-log IC50 (pIC50) against Integrin alpha-V/beta-3 was 9.40.
`N=C(N)NOCCOc1ccc2[nH]c(C(=O)NCC(NC(=O)OCc3ccccc3)C(=O)O)cc2c1` (stereo not given) showed a pIC50 on Integrin alpha-V/beta-3 of 8.14.
As for `N=C(N)NOCCOc1ccc2[nH]c(C(=O)NC(CC(=O)O)c3cc(Cl)cc(Cl)c3)cc2c1` (stereo not given), the pIC50 against Integrin alpha-V/beta-3 is under 7.70.
In turn, `CCCCS(=O)(=O)NC(CNC(=O)c1cc2cc(OCCON=C(N)N)ccc2[nH]1)C(=O)O` (stereo not given) showed a pIC50 at Integrin alpha-V/beta-3 of 7.98.
With `N=C(N)NOCCOc1ccc2[nH]c(C(=O)NCC(NS(=O)(=O)c3cc(Cl)cc(Cl)c3)C(=O)O)cc2c1` (stereo not given), the pIC50 is 8.21 against Integrin alpha-V/beta-3, 7.60 in test [1] and under 6.00 against Integrin alpha-5/beta-1.
On Integrin alpha-V/beta-3, `O=C(NCc1ccccc1)NOCCOc1ccc2[nH]c(C(=O)NCC(NC(=O)OCc3ccccc3)C(=O)O)cc2c1` (stereo not given) gave a negative-log IC50 (pIC50) of under 4.70.
With `N=C(N)NOCCOc1ccc2[nH]c(C(=O)NCC(NS(=O)(=O)c3ccccc3)C(=O)O)cc2c1` (stereo not given), the pIC50 on Integrin alpha-V/beta-3 is 8.47; in test [1] it was 7.89; against Integrin alpha-V/beta-5, 6.00.
For `N=C(N)NOCCOc1ccc2[nH]c(C(=O)NCC(NC(=O)c3ccccc3)C(=O)O)cc2c1` (stereo not given), the pIC50 against Integrin alpha-V/beta-3 is 6.51.

Source of the values: ChEMBL document CHEMBL1137098, “Design, synthesis, and biochemical evaluation of novel alpha V beta 3 integrin ligands” (Bioorg Med Chem Lett, 2004).
